Target: T1, human LPA1 (Homo sapiens, UniProt Q92633)
T1 construct: expressed in transfected cells; host or cells: Chinese hamster ovary (CHO) cells
T1 sequence (Q92633 whole entry): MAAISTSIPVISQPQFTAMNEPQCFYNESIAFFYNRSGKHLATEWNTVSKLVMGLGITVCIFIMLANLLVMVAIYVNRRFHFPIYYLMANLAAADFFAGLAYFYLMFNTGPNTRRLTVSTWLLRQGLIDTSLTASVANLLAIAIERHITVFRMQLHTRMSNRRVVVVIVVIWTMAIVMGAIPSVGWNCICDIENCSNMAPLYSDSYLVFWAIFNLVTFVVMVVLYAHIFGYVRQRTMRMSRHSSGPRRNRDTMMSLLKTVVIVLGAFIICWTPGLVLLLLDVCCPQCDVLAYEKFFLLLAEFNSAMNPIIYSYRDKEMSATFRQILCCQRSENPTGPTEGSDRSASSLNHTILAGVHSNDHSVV
Experiment: LPA1 functional antagonist assay (LPA-induced calcium flux)
Type: cell-based
Conditions: CHO cells overexpressing human LPA1, 10 nM LPA, read-out: hLPA1 IC50
Protocol: The effectiveness of compounds of the present invention as LPA1 inhibitors can be determined in an LPA1 functional antagonist assay as follows:
Chinese hamster ovary cells overexpressing human LPA1 were plated overnight (15,000 cells/well) in poly-D-lysine coated 384-well microplates (Greiner bio-one, Cat #781946) in DMEM/F12 medium (Gibco, Cat #11039). Following overnight culture, cells were loaded with calcium indicator dye (AAT Bioquest Inc, Cat #34601) for 30 minutes at 37° C. The cells were then equilibrated to room temperature for 30 minutes before the assay. Test compounds solubilized in DMSO were transferred to 384 well non-binding surface plates (Corning, Cat #3575) using the Labcyte Echo acoustic dispense and diluted with assay buffer [1×HBSS with calcium/magnesium (Gibco Cat #14025-092), 20 mM HEPES (Gibco Cat #15630-080) and 0.1% fatty acid free BSA (Sigma Cat #A9205)] to a final concentration of 0.5% DMSO. Diluted compounds were added to the cells by FDSS6000 (Hamamatsu) at final concentrations ranging from 0.08 nM to 5 μM. and were then incubated for 20 min at room temperature at which time LPA (Avanti Polar Lipids Cat #857130C) was added at final concentrations of 10 nM to stimulate the cells. The compound IC50 value was defined as the concentration of test compound which inhibited 50% of the calcium flux induced by LPA alone. IC50 values were determined by fitting data to a 4-parameter logistic equation (GraphPad Prism, San Diego Calif.).
Compound `CCc1nc(-c2cnn(C)c2CNc2nccc(OCCOC)n2)ncc1O[C@H]1CCC[C@H](C(=O)O)C1` [Example 27, (1S,3S)-3-((4-ethyl-2-(5-(((4-(2-methoxyethoxy)pyrimidin-2-yl)amino)methyl)-1-methyl-1H-pyrazol-4-yl)pyrimidin-5-yl)oxy)cyclohexane-1-carboxylic acid] has an IC50 of 61 nM.
`CCOc1ccnc(NCc2c(-c3ncc(O[C@H]4CCC[C@H](C(=O)O)C4)cn3)cnn2C)n1` [Example 28, (1S,3S)-3-((2-(5-(((4-ethoxypyrimidin-2-yl)amino)methyl)-1-methyl-1H-pyrazol-4-yl)pyrimidin-5-yl)oxy)cyclohexane-1-carboxylic acid] gave an IC50 of 23 nM.
In the case of `CCOc1ccnc(N(C)Cc2c(-c3ncc(O[C@H]4CCC[C@H](C(=O)O)C4)cn3)cnn2C)n1` [Example 29], the IC50 is reported as 151 nM.
Work on `Cc1nc(-c2cnn(C)c2CNc2nccc(OC3CC(F)(F)C3)n2)ncc1O[C@H]1CCC[C@H](C(=O)O)C1` [Example 31, (1S,3S)-3-((2-(5-(((4-(3,3-difluorocyclobutoxy)pyrimidin-2-yl)amino)methyl)-1-methyl-1H-pyrazol-4-yl)-4-methylpyrimidin-5-yl)oxy)cyclohexane-1-carboxylic acid] yielded an IC50 of 122 nM.
In the case of `Cc1nc(-c2cnn(C)c2CNc2ccnc(OC3CC(F)(F)C3)n2)ncc1O[C@H]1CCC[C@H](C(=O)O)C1` [Example 32, (1S,3S)-3-((2-(5-(((2-(3,3-difluorocyclobutoxy)pyrimidin-4-yl)amino)methyl)-1-methyl-1H-pyrazol-4-yl)-4-methylpyrimidin-5-yl)oxy)cyclohexane-1-carboxylic acid], the IC50 is reported as 619 nM.
For `Cc1nc(-c2cnn(C)c2CNc2nccc(OCC(C)F)n2)ncc1O[C@H]1CCC[C@H](C(=O)O)C1` (stereo partly drawn) [Example 33, (1S,3S)-3-((2-(5-(((4-(2-fluoropropoxy)pyrimidin-2-yl)amino)methyl)-1-methyl-1H-pyrazol-4-yl)-4-methylpyrimidin-5-yl)oxy)cyclohexane-1-carboxylic acid], the IC50 was 21 nM.
`COCCOc1ccnc(NCc2c(-c3ncc(O[C@H]4CCC[C@H](C(=O)O)C4)c(C)n3)cnn2C)n1` [Example 34, (1S,3S)-3-((2-(5-(((4-(2-methoxyethoxy)pyrimidin-2-yl)amino)methyl)-1-methyl-lH-pyrazol-4-yl)-4-methylpyrimidin-5-yl)oxy)cyclohexane-1-carboxylic acid] showed an IC50 of 78 nM.
Work on `CCc1ccnc(NCc2c(-c3ncc(O[C@H]4CCC[C@H](C(=O)O)C4)c(C)n3)cnn2C)n1` [Example 35, (1S,3S)-3-((2-(5-(((4-ethylpyrimidin-2-yl)amino)methyl)-1-methyl-1H-pyrazol-4-yl)-4-methylpyrimidin-5-yl)oxy)cyclohexane-1-carboxylic acid] yielded an IC50 of 207 nM.
`COCCCOc1ccnc(NCc2c(-c3ncc(O[C@H]4CCC[C@H](C(=O)O)C4)c(C)n3)cnn2C)n1` [Example 36, (1S,3S)-3-((2-(5-(((4-(3-methoxypropoxy)pyrimidin-2-yl)amino)methyl)-1-methyl-1H-pyrazol-4-yl)-4-methylpyrimidin-5-yl)oxy)cyclohexane-1-carboxylic acid] gave an IC50 of 27 nM.
Compound `CCCNc1nc(NCc2c(-c3ncc(O[C@H]4CCC[C@H](C(=O)O)C4)c(C)n3)cnn2C)ncc1F` [Example 37, (1S,3S)-3-((2-(5-(((5-fluoro-4-(propylamino)pyrimidin-2-yl)amino)methyl)-1-methyl-1H-pyrazol-4-yl)-4-methylpyrimidin-5-yl)oxy)cyclohexane-1-carboxylic acid] has an IC50 of 13 nM.
In the case of `CCNc1nc(NCc2c(-c3ncc(O[C@H]4CCC[C@H](C(=O)O)C4)c(C)n3)cnn2C)ncc1F` [Example 38, (1S,3S)-3-((2-(5-(((4-(ethylamino)-5-fluoropyrimidin-2-yl)amino)methyl)-1-methyl-1H-pyrazol-4-yl)-4-methylpyrimidin-5-yl)oxy)cyclohexane-1-carboxylic acid], the IC50 is reported as 41 nM.
For `Cc1nc(-c2cnn(C)c2CNc2nccc(OCC(F)(F)C(F)F)n2)ncc1O[C@H]1CCC[C@H](C(=O)O)C1` [Example 39, (1S,3S)-3((4-methyl-2-(1-methyl-5-(((4-(2,2,3,3-tetrafluoropropoxy)pyrimidin-2-yl)amino)methyl)-1H-pyrazol-4-yl)pyrimidin-5-yl)oxy)cyclohexane-1-carboxylic acid], the IC50 was 6.2 nM.
With `Cc1nc(-c2cnn(C)c2CNc2nccc(OCC(F)F)n2)ncc1O[C@H]1CCC[C@H](C(=O)O)C1` [Example 40, (1S,3S)-3-((2-(5-(((4-(2,2-difluoroethoxy)pyrimidin-2-yl)amino)methyl)-1-methyl-1H-pyrazol-4-yl)-4-methylpyrimidin-5-yl)oxy)cyclohexane-1-carboxylic acid] the IC50 was 2.7 nM.
`Cc1nc(-c2cnn(C)c2CNc2nccc(OCCCF)n2)ncc1O[C@H]1CCC[C@H](C(=O)O)C1` [Example 41, (1S,3S)-3-((2-(5-(((4-(3-fluoropropoxy)pyrimidin-2-yl)amino)methyl)-1-methyl-1H-pyrazol-4-yl)-4-methylpyrimidin-5-yl)oxy)cyclohexane-1-carboxylic acid] gave an IC50 of 7.1 nM.
With `Cn1ncc(-c2ccc(O[C@H]3CCC[C@H](C(=O)O)C3)cn2)c1Nc1cccc(-c2cccc(F)c2)n1` [Example 42, (1S,3S)-3-{[6-(5-{[6-(3-fluorophenyl)pyridin-2-yl]amino}-1-methyl-1H-pyrazol-4-yl)pyridin-3-yl]oxy}cyclohexane-1-carboxylic acid] the IC50 was 137 nM.
With `Cc1nc(-c2cnn(C)c2CNc2ncnc(C(C)C)n2)ncc1O[C@H]1CCC[C@H](C(=O)O)C1` [Example 43, (1S,3S)-3-((2-(5-(((4-isopropyl-1,3,5-triazin-2-yl)amino)methyl)-1-methyl-1H-pyrazol-4-yl)-4-methylpyrimidin-5-yl)oxy)cyclohexane-1-carboxylic acid] the IC50 was 28 nM.
Compound “(1S,3S)-3-((2-(5-(((4-(2-fluoro-phenyl)pyrimidin-2-yl)amino) methyl)-1-methyl-1H-1,2,3-triazol-4-yl)-4-methylpyrimidin-5-yl)oxy)cyclohexanecarboxylic acid [Example 14]” has an IC50 of 22 nM.

Test system: highly peritoneal metastatic pancreatic cancer cell line
Experiment: not given
Conditions: cited from earlier work
For `Cc1noc(-c2ccc(CSCCC(=O)O)cc2)c1NC(=O)OC(C)c1ccccc1Cl` (stereo not drawn) [Ki16425], the “LPA-induced and ascites-induced invasion activity” value is given as “blocked”.

Test system: pancreatic cancer cell lines
Experiment: not given
Conditions: ascites from pancreatic cancer patients; cited from earlier work
For `Cc1noc(-c2ccc(CSCCC(=O)O)cc2)c1NC(=O)OC(C)c1ccccc1Cl` (stereo not drawn) [Ki16425], the “in vitro migration in response to LPA and peritoneal fluid (ascites)” value is given as “effectively blocked”.

Test system: nerve-injured mice
Experiment: not given
Conditions: pretreatment; cited from earlier work
For `C[C@@H](N)[C@H]1CC[C@H](C(=O)Nc2ccncc2)CC1` [Example Y-27632], the allodynia and hyperalgesia is listed as “completely abolished”.

Test system: human foetal lung fibroblasts
Experiment: not given
Conditions: bronchoalveolar lavage samples of IPF subjects; cited from earlier work
For `Cc1noc(-c2ccc(CSCCC(=O)O)cc2)c1NC(=O)OC(C)c1ccccc1Cl` (stereo not drawn) [Ki16425], the fibroblast chemotactic activity is given as “inhibited”.

Test system: UUO mice
Experiment: not given
Conditions: cited from earlier work
In the case of `Cc1noc(-c2ccc(CSCCC(=O)O)cc2)c1NC(=O)OC(C)c1ccccc1Cl` (stereo not drawn) [Ki16425], the “development of renal fibrosis, profile” value is listed as “closely resembled the profile of LPA1 (−/−) mice”.

Test system: mouse epithelial renal cell line, MCT
Experiment: not given
Conditions: MCT cells, co-treatment with LPA; cited from earlier work
In the case of `Cc1noc(-c2ccc(CSCCC(=O)O)cc2)c1NC(=O)OC(C)c1ccccc1Cl` (stereo not drawn) [Ki16425], the “induction of CTGF expression by LPA” value is given as “almost completely suppressed”.

Test system: IPF patients
Experiment: not given
Conditions: 26 weeks; cited from earlier work
In the case of `Cc1noc(-c2ccc(-c3ccc(C4(C(=O)O)CC4)cc3)cc2)c1NC(=O)O[C@H](C)c1ccccc1` [BMS-986020], the “rate of FVC (forced vital capacity) decline” value is listed as “significantly reduce the rate of FVC (forced vital capacity) decline”.

From US11312706B2, “Cyclohexyl acid pyrazole azines as LPA antagonists” (BRISTOL-MYERS SQUIBB COMPANY, priority 2017, dated 2022)
